Measurements: patent US6495591B1, “Fungal efflux pump inhibitors” (Essential Therapeutics, Inc., priority 1997, dated 2002)

Experiments:
Format in all cases: cell-based
YEM 51 C. glabrata wt = test: FEPI MIC with/without 1/8 fluconazole MIC at 24 hrs (Table 11); conditions: YEM 51, 24 hrs, 80% inhibition; for MIC of compound in the presence of fluconazole (+): 1/8 × MIC of fluconazole
[1] = test system: YEM 24 C. albicans ΔCDR1, ΔCDR2; test: microbe, parasite or virus in culture; conditions: YEM 24, 24 hrs, 80% inhibition; for MIC of compound in the presence of fluconazole (+): 1/8 × MIC of fluconazole
YEM 30 C. albicans wt = test: FEPI MIC with/without 1/8 fluconazole MIC at 24 hrs (Table 11); conditions: YEM 30, 24 hrs, 80% inhibition; for MIC of compound in the presence of fluconazole (+): 1/8 × MIC of fluconazole
[2] = test system: YEM 27 C. albicans ΔCDR1ΔCDR2 ΔBENΔFLU1; test: microbe, parasite or virus in culture; conditions: YEM 27, 24 hrs, 80% inhibition; for MIC of compound in the presence of fluconazole (+): 1/8 × MIC of fluconazole
Aspergillus fumigatus = test: FEPI MICs in combination with 1/4 the azole's MIC (Table 12); set-up: FEPI MIC (alone): unit not given here; conditions: for FEPI MIC with fluconazole, 60% Inh / FEPI MIC with fluconazole, 80% Inh: fluconazole 32 μg/ml (1/4 MIC); for FEPI MIC with fluconazole, 60% Inh / FEPI MIC with itraconazole, 60% Inh / FEPI MIC with ketoconazole, 60% Inh: 60% inhibition; for FEPI MIC with fluconazole, 80% Inh / FEPI MIC with itraconazole, 80% Inh / FEPI MIC with ketoconazole, 80% Inh / FEPI MIC (alone): 80% inhibition; for FEPI MIC with itraconazole, 60% Inh / FEPI MIC with itraconazole, 80% Inh: itraconazole 0.063 μg/ml (1/4 MIC); for FEPI MIC with ketoconazole, 60% Inh / FEPI MIC with ketoconazole, 80% Inh: ketoconazole 4 μg/ml (1/4 MIC); for FEPI MIC (alone): no azole, 35° C., CM Broth
Description: The combinations were tested against a series of Candida strain with known expression of efflux pumps or with complete deletion of all known pumps and Aspergillus fumigatus. Results are reported as minimum inhibitory concentration (MIC) of […] in the presence or absence of […]. A total of 27 distinct milbemycins were studied.

YEM 53 C. krusei = test: FEPI MIC with/without 1/8 fluconazole MIC at 24 hrs (Table 11); conditions: YEM 53, 24 hrs, 80% inhibition; for MIC of compound in the presence of fluconazole (+): 1/8 × MIC of fluconazole
[3] = test system: YEM 17 C. glabrata, CgCDR up; conditions: 24 hrs, 80% inhibition; for MIC of compound in the presence of fluconazole (+): 1/8 × MIC of fluconazole
[4] = test system: YEM 13 C. albicans BEN up; test: microbe, parasite or virus in culture; conditions: YEM 13, 24 hrs, 80% inhibition; for MIC of compound in the presence of fluconazole (+): 1/8 × MIC of fluconazole
[5] = test system: YEM 15 C. albicans, CDR1CDR2 up; test: microbe, parasite or virus in culture; conditions: YEM 15, 24 hrs, 80% inhibition; for MIC of compound in the presence of fluconazole (+): 1/8 × MIC of fluconazole

Row | Molecule | MIC of compound in the presence of fluconazole (+) (YEM 51 C. glabrata wt) [µg/mL] | MIC of compound in the absence of fluconazole (−) (YEM 51 C. glabrata wt) [µg/mL] | MIC of compound in the presence of fluconazole (+) [1] [µg/mL] | MIC of compound in the absence of fluconazole (−) [1] [µg/mL] | MIC of compound in the presence of fluconazole (+) (YEM 30 C. albicans wt) | MIC of compound in the absence of fluconazole (−) (YEM 30 C. albicans wt) [µg/mL] | MIC of compound in the presence of fluconazole (+) [2] [µg/mL] | MIC of compound in the absence of fluconazole (−) [2] [µg/mL] | FEPI MIC with fluconazole, 60% Inh (Aspergillus fumigatus) | FEPI MIC with fluconazole, 80% Inh (Aspergillus fumigatus) | FEPI MIC with itraconazole, 60% Inh (Aspergillus fumigatus) | FEPI MIC with itraconazole, 80% Inh (Aspergillus fumigatus) | FEPI MIC with ketoconazole, 60% Inh (Aspergillus fumigatus) | FEPI MIC with ketoconazole, 80% Inh (Aspergillus fumigatus) | FEPI MIC (alone) (Aspergillus fumigatus) | MIC of compound in the presence of fluconazole (+) (YEM 53 C. krusei) [µg/mL] | MIC of compound in the absence of fluconazole (−) (YEM 53 C. krusei) [µg/mL] | MIC of compound in the presence of fluconazole (+) [3] [µg/mL] | MIC of compound in the absence of fluconazole (−) [3] [µg/mL] | MIC of compound in the presence of fluconazole (+) [4] [µg/mL] | also measured
1 | C/C1=C\C[C@@H]2C[C@@H](C[C@]3(CC[C@H](C)[C@@H](C)O3)O2)OC(=O)[C@@H]2C=C(COC(=O)C(C)C)[C@@H](O)[C@H]3OC/C(=C\C=C\[C@H](C)C1)[C@]32O [Compound 20, 4a-O-isobutyryl milbemycin α1] | 2 | > 64 | > 64 | > 64 | ≦0.06 | > 64 | 64 | > 64 | 2 | 4 | 0.25 | 8 | ≦0.063 | ≦0.063 | 64 | 4 | > 64 | 4 | > 64 | 64 | MIC of compound in the absence of fluconazole (−) [4]: > 64 µg/mL; MIC of compound in the presence of fluconazole (+) [5]: ≦0.03; MIC of compound in the absence of fluconazole (−) [5]: > 64 µg/mL
2 | CCC(C)C1OC2(CC3CC(CC=C(C)C(OC4CC(OC)C(O)C(C)O4)C(C)C=CC=C4COC5C(O)C(C)=CC(C(=O)O3)C45O)O2)CC(O)C1C (centres unmarked) [Compound 23, Avermectin B2a monoglycoside] | > 64 | > 64 | > 64 | > 64 | ≦0.03 | > 64 | > 64 | > 64 | >64 | >64 | 64 | >64 | ≦0.063 | 8 | >64 | > 64 | > 64 | > 64 | > 64 | > 64 | MIC of compound in the absence of fluconazole (−) [4]: > 64 µg/mL; MIC of compound in the presence of fluconazole (+) [5]: 64 µg/mL; MIC of compound in the absence of fluconazole (−) [5]: > 64 µg/mL
3 | C/C1=C\C[C@@H]2C[C@@H](C[C@]3(CC[C@H](C)[C@@H](C)O3)O2)OC(=O)[C@@H]2C=C(COC(=O)Cc3ccccc3)[C@@H](O)[C@H]3OC/C(=C\C=C\[C@H](C)C1)[C@]32O [Compound 25, 4a-O-phenylacetyl milbemycin α1] | 4 | > 64 | > 64 | > 64 | ≦0.03 | > 64 | > 64 | > 64 | 1 | 2 | 0.5 | >64 | ≦0.063 | 0.25 | >64 | 0.06 | > 64 | 2 | > 64 | > 64 | MIC of compound in the absence of fluconazole (−) [4]: > 64 µg/mL; MIC of compound in the presence of fluconazole (+) [5]: ≦0.03; MIC of compound in the absence of fluconazole (−) [5]: > 64 µg/mL
4 | CO[C@H]1C[C@@]2(O)/C(C=O)=C/C=C/[C@H](C)C/C(C)=C/C[C@@H]3C[C@@H](C[C@]4(CC[C@H](C)[C@@H](C)O4)O3)OC(=O)[C@@H]2C=C1C [Compound 5, Milbemycin β1 aldehyde] | 0.25 | > 64 | > 64 | > 64 | ≦0.03 | > 64 | 64 | > 64 | 4 | 64 | 0.5 | 32 | ≦0.063 | ≦0.063 | 64 | > 64 | > 64 | 0.125 | > 64 | 64 | MIC of compound in the absence of fluconazole (−) [4]: > 64 µg/mL; MIC of compound in the presence of fluconazole (+) [5]: ≦0.03; MIC of compound in the absence of fluconazole (−) [5]: > 64 µg/mL
5 | CCC(C)C1OC2(CC3CC(CC=C(C)C(O)C(C)C=CC=C4COC5C(O)C(C)=CC(C(=O)O3)C45O)O2)CC(O)C1C (stereo not drawn) [Compound 14, Avermectin β2a aglycone] | 16 | > 64 | > 64 | > 64 | 4 µg/mL | > 64 | > 64 | > 64 | 64 | >64 | >64 | >64 | 2 | 16 | >64 | > 64 | > 64 | 16 | > 64 | > 64 | MIC of compound in the absence of fluconazole (−) [4]: > 64 µg/mL; MIC of compound in the presence of fluconazole (+) [5]: 2 µg/mL; MIC of compound in the absence of fluconazole (−) [5]: > 64 µg/mL
6 | C/C1=C\C[C@@H]2CC(C[C@]3(CC[C@H](C)[C@@H](C)O3)O2)OC(=O)c2cc(C)c(O)cc2/C(C)=C/C=C/[C@H](C)C1 [Compound 13, Milbemycin β3] | > 64 | > 64 | > 64 | > 64 | 0.125 µg/mL | > 64 | > 64 | > 64 | 32 | >64 | 64 | >64 | 0.5 | 0.5 | >64 | > 64 | > 64 | 64 | > 64 | 64 | MIC of compound in the absence of fluconazole (−) [4]: > 64 µg/mL; MIC of compound in the presence of fluconazole (+) [5]: 8 µg/mL; MIC of compound in the absence of fluconazole (−) [5]: > 64 µg/mL
7 | LL-F2849ζ (nemedectinζ) [Compound 17] | 0.5 | > 64 | > 64 | > 64 | ≦0.03 | > 64 | 64 | > 64 | 64 | 64 | 16 | >64 | 4 | 4 | >64 | > 64 | > 64 | 2 | > 64 | > 64 | MIC of compound in the absence of fluconazole (−) [4]: > 64 µg/mL; MIC of compound in the presence of fluconazole (+) [5]: ≦0.03; MIC of compound in the absence of fluconazole (−) [5]: > 64 µg/mL
